In ChEMBL document CHEMBL1671852, “In vitro activities of linezolid against clinical isolates of Mycobacterium tuberculosis complex isolated in Taiwan over 10 years” (2008):
In brackets after ≈: the same amount, converted by molar mass.

Test system: Mycobacterium tuberculosis
Experiment: Antibacterial activity against Mycobacterium tuberculosis H37Rv by agar proportion method
Format: functional

## CC(=O)NC[C@H]1CN(c2ccc(N3CCOCC3)c(F)c2)C(=O)O1 [LINEZOLID]
  MIC: 0.5 µg/mL (≈ 1.48 µM)
